Assay results taken from patent US5159102A, “7-thiaprostaglandins E, and process for producing same” (Teijin Limited, priority 1990, dated 1992).
Converted amounts (≈) assume the structure as drawn.

What was measured:
[1] = test system: blood platelet aggregation (ADP, PRP); test: In vitro blood platelet aggregation inhibition effect; format: cell-based, native Japanese white male domestic rabbits; settings: Oryctolagus cuniculus, rabbit PRP, 10 μM ADP, 37° C., read-out: Anti-platelet aggregation effect IC50
Description: The in vitro blood platelet aggregation inhibition effect of the sample compounds to be tested was examined by using rabbits. That is, blood was collected from the ear vein of native Japanese white male domestic rabbits weighing 2.5 to 3.5 kg. The collected blood was 9 parts by volume per 1 part by volume of a 3.8% sodium citrate solution. The blood was centrifuged at 1000 r.p.m. for 10 minutes. The upper layer portion was separated as PRP (rich in platelet blood plasma). The lower layer portion was further centrifuged at 2800 r.p.m. for 10 minutes to divide it into two layers. The upper layer portion was separated as PPP (poor in platelet blood plasma). The number of the platelet was diluted with PPP to […]. After the adjustment, 25 μl of the sample compound was added to 250 μl of PRP, which was preincubated at a temperature of 37° C. for 2 minutes. Thereafter, 10 μM of ADP (final) was added to the preincubated PRP to record the variation of the transmittance by means of aggregometer. […]
When the activity of the sample compounds was determined, the ethanol solution was diluted with a phosphoric acid buffer (PH 7.4). The ethanol solution diluted with the buffer was left to stand at a temperature of 0° C. for 4 hours, after which the activity of the sample compounds was determined in the same manner.
The platelet aggregation inhibition was calculated by the following formula: […]

[2] = test system: ulcer formation induced by indomethacin (stomach); test: Inhibiting effect on ulcer formation induced by indomethacin (antiulcerative effect); format: in vivo; settings: Rattus norvegicus, po; P.O., Wister male rats; 30 min before indomethacin 20 mg/kg p.o.; ulcer length 5 h after
Description: The inhibiting effect on ulcer formation induced by indomethacin was examined by using rats. Wister male rats (7 weeks old and body weight of 220 g) were abstained from food for 24 hours except giving water and then subjected to experiments.
The sample compounds to be tested were dissolved in a phosphoric acid buffer (pH 7.4) containing 0.9% NaCl and the solution was orally administered to the rats. 30 minutes after the administration, indomethacin was orally administered to the rats at a dose of 20 mg/kg. 5 hours after the administration of the indomethacin, the rats were killed and the ulcer formation in the stomach was examined by determining the length of the ulcer formation portion under a stereomicroscope. From this measurement, the inhibition of ulcer formation by the sample compounds were calculated to determine the ED values.

CCCCC(O)C/C=C/[C@H]1[C@H](O)CC(=O)[C@@H]1SCCCCCC(=O)OC (stereo partly shown)
IC50 [1]: 17 mg/L (≈ 44 µM) | ED50 [2]: 0.01 mg/kg

CCCCCC(O)/C=C/C1CCC(=O)C1SCCCCCC(=O)OC (stereo not shown)
IC50 [1]: > 100 mg/L | ED50 [2]: 0.3 mg/kg
